System: MV-4-11 cells
Test: Gene expression microarray analysis (Affymetrix PrimeView) and GSEA
Type: cell-based, human
Design: RFU PODN (11730768_x_at) / Fold change /veh PODN (11730768_x_at) / RFU LINC00158 (11744669_a_at) / Fold change /veh LINC00158 (11744669_a_at) / RFU DUSP10 (11751237_a_at) / Fold change /veh DUSP10 (11751237_a_at) / RFU ID3 (11757404_x_at) / Fold change /veh ID3 (11757404_x_at) / RFU PLEKHG5 (11737974_s_at) / Fold change /veh PLEKHG5 (11737974_s_at) / RFU LRRC4B (11730491_at) / Fold change /veh LRRC4B (11730491_at) / RFU GIMAP4 (11747438_a_at) / Fold change /veh GIMAP4 (11747438_a_at) / RFU KRT8 (11758183_x_at) / Fold change /veh KRT8 (11758183_x_at) / RFU CNN1 (11734310_a_at) / Fold change /veh CNN1 (11734310_a_at) / RFU VPS37D (11726825_at) / Fold change /veh VPS37D (11726825_at) / RFU C10orf10 (11716522_x_at) / Fold change /veh C10orf10 (11716522_x_at) / RFU KIR2DL2 /// KIR2DL4 /// KIR2DL5A /// KIR2DL5B /// KIR2DS1 /// KIR2DS2 /// KIR2DS3 /// KIR2DS4 /// KIR3DL3 /// KIR3DL3 /// KIR3DS1 (11738374_at) / Fold change /veh KIR2DL2 /// KIR2DL4 /// KIR2DL5A /// KIR2DL5B /// KIR2DS1 /// KIR2DS2 /// KIR2DS3 /// KIR2DS4 /// KIR3DL3 /// KIR3DL3 /// KIR3DS1 (11738374_at) / RFU C1QL1 (11718748_at) / Fold change /veh C1QL1 (11718748_at) / RFU TMPRSS4 (11747572_a_at) / Fold change /veh TMPRSS4 (11747572_a_at) / RFU HAMP (11756126_x_at) / Fold change /veh HAMP (11756126_x_at) / RFU RNFT2 (11725882_a_at) / Fold change /veh RNFT2 (11725882_a_at) / RFU NR4A2 (11747474_a_at) / Fold change /veh NR4A2 (11747474_a_at) / RFU ABCC12 (11746883_a_at) / Fold change /veh ABCC12 (11746883_a_at) / RFU TMEM136 (11760407_x_at) / Fold change /veh TMEM136 (11760407_x_at) / RFU CLDN22 /// WWC2 (11732394_at) / Fold change /veh CLDN22 /// WWC2 (11732394_at) / RFU HLA-DPB1 (11760878_x_at) / Fold change /veh HLA-DPB1 (11760878_x_at) / RFU SPINT1 (11716480_a_at) / Fold change /veh SPINT1 (11716480_a_at) / RFU GAP43 (11754022_s_at) / Fold change /veh GAP43 (11754022_s_at) / RFU A4GNT (11735810_at) / Fold change /veh A4GNT (11735810_at) / RFU PRB3 (11715151_x_at) / Fold change /veh PRB3 (11715151_x_at) / RFU TUBB4B (11761932_at) / Fold change /veh TUBB4B (11761932_at) / RFU CAPN14 (11732068_a_at) / Fold change /veh CAPN14 (11732068_a_at) / RFU TMCC2 (11721928_a_at) / Fold change /veh TMCC2 (11721928_a_at) / RFU IRGQ (11745062_a_at) / Fold change /veh IRGQ (11745062_a_at) / RFU FAM174B (11720279_a_at) / Fold change /veh FAM174B (11720279_a_at) / RFU TMPRSS4 (11748680_a_at) / Fold change /veh TMPRSS4 (11748680_a_at) / RFU FAM212B (11763350_a_at) / Fold change /veh FAM212B (11763350_a_at) / RFU PLEKHG5 (11743358_a_at) / Fold change /veh PLEKHG5 (11743358_a_at) / RFU ZSCAN30 (11745921_a_at) / Fold change /veh ZSCAN30 (11745921_a_at) / RFU CMKLR1 (11741424_a_at) / Fold change /veh CMKLR1 (11741424_a_at) / RFU LOC101060620 /// MAPK8IP1 (11723275_at) / Fold change /veh LOC101060620 /// MAPK8IP1 (11723275_at) / RFU SPTSSB (11747773_x_at) / Fold change /veh SPTSSB (11747773_x_at) / RFU PRSS12 (11739890_at) / Fold change /veh PRSS12 (11739890_at) / RFU BIN1 (11741810_x_at) / Fold change /veh BIN1 (11741810_x_at) / RFU WNT11 (11732464_a_at) / Fold change /veh WNT11 (11732464_a_at) / RFU C10orf10 (11716521_a_at) / Fold change /veh C10orf10 (11716521_a_at) / RFU C5orf56 (11738089_at) / Fold change /veh C5orf56 (11738089_at) / RFU CYB561 (11721691_x_at) / Fold change /veh CYB561 (11721691_x_at) / RFU ANKRD19P (11752326_a_at) / Fold change /veh ANKRD19P (11752326_a_at) / RFU OR2T12 /// OR2T33 /// OR2T8 (11738714_s_at) / Fold change /veh OR2T12 /// OR2T33 /// OR2T8 (11738714_s_at) / RFU VCAN (11748164_a_at) / Fold change /veh VCAN (11748164_a_at) / RFU JSRP1 (11732532_at) / Fold change /veh JSRP1 (11732532_at) / RFU KRTAP10-11 (11738290_x_at) / Fold change /veh KRTAP10-11 (11738290_x_at) / RFU MYO3A (11730013_a_at) / Fold change /veh MYO3A (11730013_a_at) / RFU EBF3 (11725865_a_at) / Fold change /veh EBF3 (11725865_a_at) / RFU CAMK2N1 (11719241_x_at) / Fold change /veh CAMK2N1 (11719241_x_at) / RFU C5orf56 (11738088_a_at) / Fold change /veh C5orf56 (11738088_a_at) / RFU OLFML3 (11715873_a_at) / Fold change /veh OLFML3 (11715873_a_at) / RFU LOC100653217 /// NTM (11731650_a_at) / Fold change /veh LOC100653217 /// NTM (11731650_a_at) / RFU MAPK11 (11762145_a_at) / Fold change /veh MAPK11 (11762145_a_at) / RFU FIZ1 (11724087_x_at) / Fold change /veh FIZ1 (11724087_x_at) / RFU OASL (11726364_x_at) / Fold change /veh OASL (11726364_x_at) / RFU SOX15 (11748057_x_at) / Fold change /veh SOX15 (11748057_x_at) / RFU CD79A (11719716_a_at) / Fold change /veh CD79A (11719716_a_at) / RFU HIST1H1D (11736915_at) / Fold change /veh HIST1H1D (11736915_at) / RFU CASKIN2 (11723855_a_at) / Fold change /veh CASKIN2 (11723855_a_at) / RFU LOC730098 (11760151_x_at) / Fold change /veh LOC730098 (11760151_x_at) / RFU OR4N2 (11742367_at) / Fold change /veh OR4N2 (11742367_at) / RFU PRRT2 (11749266_a_at) / Fold change /veh PRRT2 (11749266_a_at) / RFU SNX32 (11753110_a_at) / Fold change /veh SNX32 (11753110_a_at) / RFU CDHR5 (11726645_a_at) / Fold change /veh CDHR5 (11726645_a_at) / RFU RCAN1 (11760418_a_at) / Fold change /veh RCAN1 (11760418_a_at) / RFU FAM167A (11723789_a_at) / Fold change /veh FAM167A (11723789_a_at) / RFU FAM26E (11764081_at) / Fold change /veh FAM26E (11764081_at) / RFU ISYNA1 (11749810_s_at) / Fold change /veh ISYNA1 (11749810_s_at) / RFU ACY1 (11761880_at) / Fold change /veh ACY1 (11761880_at) / RFU 11764098_at / Fold change /veh 11764098_at / RFU SAMD14 (11745864_x_at) / Fold change /veh SAMD14 (11745864_x_at) / RFU NPB (11741838_a_at) / Fold change /veh NPB (11741838_a_at) / RFU TMPRSS6 (11731388_a_at) / Fold change /veh TMPRSS6 (11731388_a_at) / RFU KRTAP10-2 (11738614_at) / Fold change /veh KRTAP10-2 (11738614_at) / RFU ARHGAP8 /// PRR5-ARHGAP8 (11727945_x_at) / Fold change /veh ARHGAP8 /// PRR5-ARHGAP8 (11727945_x_at) / RFU KRTAP5-7 /// NADSYN1 (11734609_at) / Fold change /veh KRTAP5-7 /// NADSYN1 (11734609_at) / RFU RASL12 (11751679_a_at) / Fold change /veh RASL12 (11751679_a_at) / RFU CDKN2B (11736163_a_at) / Fold change /veh CDKN2B (11736163_a_at) / RFU PRF1 (11729649_at) / Fold change /veh PRF1 (11729649_at) / RFU, ZNF638 /// ZNF638-IT1 / Fold change vs veh, ZNF638 /// ZNF638-IT1 / RFU, PANK3 / Fold change vs veh, PANK3 / RFU, SH3YL1 / Fold change vs veh, SH3YL1 / RFU, ZEB2 / Fold change vs veh, ZEB2 / RFU, NRIP1 / Fold change vs veh, NRIP1 / RFU, PTTG1IP / Fold change vs veh, PTTG1IP / RFU, CAPN2 / Fold change vs veh, CAPN2 / RFU, MED14 / Fold change vs veh, MED14 / RFU, SNORA58 / Fold change vs veh, SNORA58 / RFU, C1orf63 / Fold change vs veh, C1orf63 / RFU, LRRFIP1 / Fold change vs veh, LRRFIP1 / RFU, NDUFAF7 / Fold change vs veh, NDUFAF7 / RFU, SLC12A2 / Fold change vs veh, SLC12A2 / RFU, IBTK / Fold change vs veh, IBTK / RFU, ESF1 / Fold change vs veh, ESF1 / Fold change vs veh, TMEM50B / RFU, TAOK1 / Fold change vs veh, TAOK1 / RFU, ACBD3 / Fold change vs veh, ACBD3 / RFU, TMA16 / Fold change vs veh, TMA16 / RFU, RWDD3 / Fold change vs veh, RWDD3 / RFU, BCAT1 / Fold change vs veh, BCAT1 / RFU, EDEM3 / Fold change vs veh, EDEM3 / RFU, TMEM33 / Fold change vs veh, TMEM33 / RFU, WDR75 / Fold change vs veh, WDR75 / RFU, AHCTF1 / Fold change vs veh, AHCTF1 / RFU, TFRC / Fold change vs veh, TFRC / RFU, ZDHHC17 / Fold change vs veh, ZDHHC17 / RFU, NOM1 / Fold change vs veh, NOM1 / RFU, ARL8B / Fold change vs veh, ARL8B / RFU, ZBTB11 / Fold change vs veh, ZBTB11 / RFU, TAMM41 / Fold change vs veh, TAMM41 / RFU, KIAA1704 /// LOC100996395 / Fold change vs veh, KIAA1704 /// LOC100996395 / RFU, ING1 / Fold change vs veh, ING1 / RFU, TRMT61B / Fold change vs veh, TRMT61B / RFU, FUBP3 / Fold change vs veh, FUBP3 / RFU, TP53 / Fold change vs veh, TP53 / RFU, TNKS2 / Fold change vs veh, TNKS2 / RFU, ZFP14 / Fold change vs veh, ZFP14 / RFU, ACTR2 / Fold change vs veh, ACTR2 / RFU, PPP3R1 / Fold change vs veh, PPP3R1 / RFU, PIK3R1 / Fold change vs veh, PIK3R1 / RFU, HNRNPA1 / Fold change vs veh, HNRNPA1 / RFU, RNF170 / Fold change vs veh, RNF170 / RFU, ZNF28 / Fold change vs veh, ZNF28 / RFU, RNGTT / Fold change vs veh, RNGTT / RFU, OGT / Fold change vs veh, OGT / RFU, BRD1 / Fold change vs veh, BRD1 / RFU, MARS / Fold change vs veh, MARS / RFU, ZNF655 / Fold change vs veh, ZNF655 / RFU, FAHD1 / Fold change vs veh, FAHD1 / RFU, BDP1 / Fold change vs veh, BDP1 / RFU, LRRCC1 / Fold change vs veh, LRRCC1 / RFU, ARID1A / Fold change vs veh, ARID1A / RFU, ZNF146 / Fold change vs veh, ZNF146 / RFU, ZNF330 / Fold change vs veh, ZNF330 / RFU, GPN3 / Fold change vs veh, GPN3 / RFU, C9orf123 / Fold change vs veh, C9orf123 / RFU, N4BP2L2 / Fold change vs veh, N4BP2L2 / RFU, ARFIP1 / Fold change vs veh, ARFIP1 / RFU, FAM179B / Fold change vs veh, FAM179B / RFU, BCL10 / Fold change vs veh, BCL10 / RFU, UHRF1BP1L / Fold change vs veh, UHRF1BP1L / RFU, BET1 / Fold change vs veh, BET1 / RFU, CNOT2 / Fold change vs veh, CNOT2 / RFU, ZNF268 / Fold change vs veh, ZNF268 / Fold change vs veh, ZNF507 / RFU, DGCR2 / Fold change vs veh, DGCR2 / RFU, WDSUB1 / Fold change vs veh, WDSUB1 / Fold change vs veh, HSP90B1 /// MIR3652 / RFU, ADSS / Fold change vs veh, ADSS / RFU, GK / Fold change vs veh, GK / RFU, ZNF148 / Fold change vs veh, ZNF148 / RFU, TAF9 / Fold change vs veh, TAF9 / RFU, SLC1A5 / Fold change vs veh, SLC1A5 / RFU, SLMO2 / Fold change vs veh, SLMO2 / RFU, ABCC4 / Fold change vs veh, ABCC4 / RFU, LOC101060439 /// RAP1B / Fold change vs veh, LOC101060439 /// RAP1B / RFU, RFX7 / Fold change vs veh, RFX7 / RFU, GTPBP10 / Fold change vs veh, GTPBP10 / RFU, CNEP1R1 / Fold change vs veh, CNEP1R1 / RFU, BIVM-ERCC5 /// ERCC5 / Fold change vs veh, BIVM-ERCC5 /// ERCC5 / RFU, ILF3 / Fold change vs veh, ILF3 / RFU 11762660_at / Fold change /veh 11762660_at / RFU VCAN (11757783_s_at) / Fold change /veh VCAN (11757783_s_at) / RFU DDX43 (11728927_at) / Fold change /veh DDX43 (11728927_at) / RFU KRT8 (11758188_x_at) / Fold change /veh KRT8 (11758188_x_at) / RFU NKD1 (11759106_at) / Fold change /veh NKD1 (11759106_at) / RFU SRD5A1 (11742802_a_at) / Fold change /veh SRD5A1 (11742802_a_at) / RFU TPSAB1 /// TPSB2 (11721975_s_at) / Fold change /veh TPSAB1 /// TPSB2 (11721975_s_at) / RFU GSTM3 (11746129_a_at) / Fold change /veh GSTM3 (11746129_a_at) / RFU IL23R (11737362_x_at) / Fold change /veh IL23R (11737362_x_at) / RFU TMEM51 (11727254_a_at) / Fold change /veh TMEM51 (11727254_a_at) / RFU PIWIL2 (11732686_x_at) / Fold change /veh PIWIL2 (11732686_x_at) / RFU ORM1 (11744905_x_at) / Fold change /veh ORM1 (11744905_x_at) / RFU CCDC152 (11743942_at) / Fold change /veh CCDC152 (11743942_at) / RFU ECM1 (11717891_a_at) / Fold change /veh ECM1 (11717891_a_at) / RFU IL23R (11748794_a_at) / Fold change /veh IL23R (11748794_a_at) / RFU TNFAIP8L3 (11732012_x_at) / Fold change /veh TNFAIP8L3 (11732012_x_at) / RFU MBOAT4 (11741988_at) / Fold change /veh MBOAT4 (11741988_at) / RFU 11764193_at / Fold change /veh 11764193_at / RFU TMEM53 (11763286_at) / Fold change /veh TMEM53 (11763286_at) / RFU MAGEB2 (11727129_at) / Fold change /veh MAGEB2 (11727129_at) / RFU TMEM200A (11744735_a_at) / Fold change /veh TMEM200A (11744735_a_at) / RFU CCDC152 (11751479_a_at) / Fold change /veh CCDC152 (11751479_a_at) / RFU FAM211A (11726209_a_at) / Fold change /veh FAM211A (11726209_a_at) / RFU RGS16 (11746705_a_at) / Fold change /veh RGS16 (11746705_a_at) / RFU VCAN (11755009_s_at) / Fold change /veh VCAN (11755009_s_at) / RFU RHOB (11743442_s_at) / Fold change /veh RHOB (11743442_s_at) / RFU RGS16 (11720943_a_at) / Fold change /veh RGS16 (11720943_a_at) / RFU RGS16 (11720944_at) / Fold change /veh RGS16 (11720944_at) / RFU, VPS4B / Fold change vs veh, VPS4B / RFU, CREB1 / Fold change vs veh, CREB1 / RFU, DNAJC13 / Fold change vs veh, DNAJC13 / RFU, GNAQ / Fold change vs veh, GNAQ / RFU, CDK5R1 / Fold change vs veh, CDK5R1 / RFU, ZRANB3 / Fold change vs veh, ZRANB3 / RFU, CUL4A / Fold change vs veh, CUL4A / RFU, CCNY / Fold change vs veh, CCNY / RFU, UFL1 / Fold change vs veh, UFL1 / RFU, COG3 / Fold change vs veh, COG3 / RFU, DIAPH2 / Fold change vs veh, DIAPH2 / RFU, SKA2 / Fold change vs veh, SKA2 / RFU, AFF3 / Fold change vs veh, AFF3 / RFU, LMF1 / Fold change vs veh, LMF1 / RFU, IPO11 / Fold change vs veh, IPO11 / RFU, DFFB / Fold change vs veh, DFFB / RFU, FOXP1 / Fold change vs veh, FOXP1 / RFU, CARD8 / Fold change vs veh, CARD8 / RFU, STRN3 / Fold change vs veh, STRN3 / RFU, ADK / Fold change vs veh, ADK / RFU, RASSF2 / Fold change vs veh, RASSF2 / RFU, WIPF1 / Fold change vs veh, WIPF1 / RFU, LARP1B / Fold change vs veh, LARP1B / RFU, RASA1 / Fold change vs veh, RASA1 / RFU, RB1 / Fold change vs veh, RB1 / RFU, PPFIA1 / Fold change vs veh, PPFIA1 / RFU, MAT2A / Fold change vs veh, MAT2A / RFU, CCT5 / Fold change vs veh, CCT5 / RFU, WDR92 / Fold change vs veh, WDR92 / RFU, CUX1 / Fold change vs veh, CUX1 / RFU, TTC7A / Fold change vs veh, TTC7A / RFU, TMEM135 / Fold change vs veh, TMEM135 / RFU, DEPTOR / Fold change vs veh, DEPTOR / RFU, CPM / Fold change vs veh, CPM / RFU, DNAJB6 / Fold change vs veh, DNAJB6 / RFU, CACNA2D3 / Fold change vs veh, CACNA2D3 / RFU, DTX4 / Fold change vs veh, DTX4 / RFU, TFCP2 / Fold change vs veh, TFCP2 / RFU, GMCL1 /// GMCL1P1 / Fold change vs veh, GMCL1 /// GMCL1P1 / RFU, AEBP2 / Fold change vs veh, AEBP2 / RFU, SNHG1 /// SNORD22 /// SNORD25 /// SNORD26 /// SNORD27 /// SNORD28 /// SNORD29 /// SNORD31 / Fold change vs veh, SNHG1 /// SNORD22 /// SNORD25 /// SNORD26 /// SNORD27 /// SNORD28 /// SNORD29 /// SNORD31 / Fold change (Aza/veh), C12orf56 (ProbeSet 11735607_a_at) / Fold change (ACY-1035/veh), C12orf56 (ProbeSet 11735607_a_at) / Fold change (Aza/veh), FGFR1OP (ProbeSet 11751329_s_at) / Fold change (ACY-1035/veh), FGFR1OP (ProbeSet 11751329_s_at) / Fold change (Aza/veh), VPS36 (ProbeSet 11739960_a_at) / Fold change (ACY-1035/veh), VPS36 (ProbeSet 11739960_a_at) / RFU SYPL1 (11715823_x_at) / Fold change /veh SYPL1 (11715823_x_at) / RFU IGFBP7 (11715501_s_at) / Fold change /veh IGFBP7 (11715501_s_at) / RFU REEP3 (11722064_at) / Fold change /veh REEP3 (11722064_at) / RFU IGLL1 (11728026_x_at) / Fold change /veh IGLL1 (11728026_x_at): dose or concentration left out as unconfirmed
Settings: ProbeSet 11732370_a_at; LIST D

Nc1ccc(-c2cccs2)cc1NC(=O)c1ccc2c(c1)cc(C1CC1)n2CCN1CCOCC1 [ACY-1035]
Fold change vs veh, CUX1: 0.84

Reference: PMC5218480 (PLoS ONE, 2017)
